Measurements taken from patent publication US20040024024A1, “Aromatic sulfone hydroxamates and their use as protease inhibitors” (priority 2001, published 2004).
Counter-ions that a name gives are not always drawn.

Key:
Format in all cases: biochemical
Human recombinant MMP-14 = biological target: T1, Human recombinant MMP-14 (Homo sapiens, UniProt P50281); assay: In vitro MMP inhibition, IC50 determination (fluorogenic substrate I)
T1 construct: The catalytic domain enzyme was expressed in E. coli inclusion bodies, solubilized in urea; made in house
In short: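 IC50 came from reduced fluorescence (ex 328 nm, em 415 nm) as inhibitor concentration rose, with 4 μM substrate I cleaved at Gly-Leu. Room-temperature incubation in pH 7.5 Tris buffer with 10 mM CaCl2; the E. coli-expressed, refolded MMP-14 catalytic domain was activated with trypsin or APMA.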

Human recombinant MMP-13 = biological target: T2, Human recombinant MMP-13 (Homo sapiens, UniProt P45452); assay: as above
T2 construct: made in house; host or cells: baculovirus / insect cells
In short: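 Fluorescence at 415 nm (excitation 328 nm) reports Gly-Leu cleavage of 4 μM quenched methoxycoumarin peptide substrate I. Human recombinant MMP-13, activated by trypsin or APMA, was incubated at room temperature with varied inhibitor concentrations in pH 7.5 Tris/NaCl/CaCl2 buffer; IC50 derived from reduced fluorescence.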

Human recombinant MMP-9 = biological target: T3, Human recombinant MMP-9 (Homo sapiens, UniProt P14780); assay: In vitro MMP inhibition, Ki determination (fluorogenic substrate II)
T3 construct: made in house; host or cells: MMP-9-transfected HT1080 cells (spent media)
T3 sequence (P14780 107-707 limits assumed): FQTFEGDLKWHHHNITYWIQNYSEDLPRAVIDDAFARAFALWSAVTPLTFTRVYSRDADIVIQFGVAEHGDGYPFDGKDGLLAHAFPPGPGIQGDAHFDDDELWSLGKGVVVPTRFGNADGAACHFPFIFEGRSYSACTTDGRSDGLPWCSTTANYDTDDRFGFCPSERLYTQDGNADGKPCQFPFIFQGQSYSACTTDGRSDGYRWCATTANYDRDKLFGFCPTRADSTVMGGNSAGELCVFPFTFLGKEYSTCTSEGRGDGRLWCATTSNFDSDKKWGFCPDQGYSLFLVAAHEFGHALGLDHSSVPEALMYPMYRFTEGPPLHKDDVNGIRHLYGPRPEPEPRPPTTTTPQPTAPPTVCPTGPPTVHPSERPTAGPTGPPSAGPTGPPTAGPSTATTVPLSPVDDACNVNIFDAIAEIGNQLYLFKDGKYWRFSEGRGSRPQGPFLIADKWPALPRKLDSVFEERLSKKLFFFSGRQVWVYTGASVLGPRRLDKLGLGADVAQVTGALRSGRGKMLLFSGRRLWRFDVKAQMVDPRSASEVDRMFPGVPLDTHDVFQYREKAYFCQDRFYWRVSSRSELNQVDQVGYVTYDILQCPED
Experimental: Several hydroxamates and salts thereof were analyzed in in vitro assays to determine their ability to inhibit the MMP cleavage of peptide substrates. Inhibition (Ki) and IC50 constants were calculated from the assayed hydroxamate-MMP interactions.
Human recombinant MMP-1, MMP-2, MMP-9, MMP-13, and MMP-14 were used in this assay. All enzymes were prepared in Assignee's laboratories following usual laboratory procedures. Protocols for the preparation and use of these enzymes are available in the scientific literature. See, e.g., Enzyme Nomenclature (Academic Press, San Diego, Calif., 1992) (and the citations therein). See also, Frije et al., J. Biol. Chem., 26(24), 16766-73 (1994).
The MMP-9 proenzyme was purified by gelatin Sepharose chromatography from spent media of MMP-9-transfected HT1080 cells provided by Dr. Howard Welgus of Washington University (St. Louis, Mo.).
All MMPs were activated using 4-aminophenylmercuric acetate (“APMA”, Sigma Chemical, St. Louis, Mo.) or trypsin. MMP-9 also was activated using human recombinant MMP-3 (purified in Assignee's laboratory following standard cloning and purification techniques).
Two fluorogenic, methoxycoumarin-containing polypeptide substrates were used in the MMP inhibition assays:
MCA-ArgProLeuGlyLeuDpaAlaArgGluArgNH2 (II)
Here, “Dpa” is 3-(2,4-dinitrophenyl)-L-2,3-diaminopropionyl group, and “MCA” is 7-methoxycoumarin-4-yl acetyl. Substrate (I) was purchased from Baychem (Redwood City, Calif.), and substrate II was prepared Assignee's laboratory. Substrate I was used in the IC50 determination assays, while substrate II was used in the Ki determination assays. In the absence of MMP inhibitory activity, either substrate is cleaved at the Gly-Leu peptide bond. This cleavage separates the highly fluorogenic peptide from the 2,4-dinitrophenyl quencher, thus resulting in increase of fluorescent intensity.
The stock solutions of the assayed hydroxamates (or salts thereof) were prepared in 1% dimethyl sulfoxide (DMSO). These stock solutions were diluted in Buffer A (100 mM Tris-HCl, 100 mM NaCl, 10 mM CaCl2, 0.05% polyoxyethylene 23 lauryl ether, pH 7.5) to obtain solutions with different hydroxamate concentrations, i.e., assay solutions with different concentrations of the assayed MMP inhibitory compound. The experiment controls contained the same amount of Buffer A/DMSO as the assayed sample, but contained no hydroxamate (or salt thereof).
The assays from which the Ki determinations were made were performed as follows. The assayed hydroxamate samples were incubated in separate wells of untreated white polystyrene plates (Nunc Nalgene International, Rochester, N.Y.), and analyzed on a Tecan SpectraFlour Plus plate reader. The excitation wavelength was 330 nm, and the emission wavelength—420 nm. All samples (assayed hydroxamates and controls) were incubated in separate plate wells at room temperature for 1 hr in the presence of 4 μM of MMP substrate (II). In the absence of MMP inhibitory activity, substrate II was cleaved at the Gly-Leu bond resulting in an increase of relative fluorescence. Inhibition was observed as a reduced rate of this increase in relative fluorescence. The various hydroxamates were analyzed using a single low enzyme concentration with a single substrate concentration fixed at or below the Km. This protocol is a modification of method by Knight et al., FEBS Lett., 296(3), 263-266 (1992). Apparent inhibitory constants were determined by non-linear regression of reaction velocity as a function of inhibitor and enzyme concentration using Morrison's equation, as described by Kuzmic, Anal. Biochem. 286, 45-50 (2000). Modifications were made in the non-linear regression method to allow a common control reaction rate and effective enzyme concentration to be shared between all dose-response relationships on a given assay plate. […]

[1] = substrate (I) 4 μM, room temperature, values not in parenthesis
[2] = substrate (II) 4 μM, 1 hr room temperature, apparent Ki, values in parenthesis

Row | IC50 (Human recombinant MMP-14; value outside parenthesis) [nM] | IC50 (Human recombinant MMP-13; value outside parenthesis) [nM] | Ki (Human recombinant MMP-9; value in parenthesis) [nM] | IC50 (Human recombinant MMP-14; value outside parentheses) [nM] | IC50 (Human recombinant MMP-13; value outside parentheses) [nM] | Ki (Human recombinant MMP-9; value in parentheses) [nM] | SMILES | further results
1 | – | – | – | – | – | – | O=C(NO)C1(S(=O)(=O)c2ccc(OCCCn3nnc(-c4ccc(OC(F)(F)F)cc4)n3)cc2)CCN(C2CC2)CC1 [Example 49] | IC50 (Human recombinant MMP-14; [1]): > 10000 nM; IC50 (Human recombinant MMP-13; [1]): 0.3 nM; Ki (Human recombinant MMP-9; [2]): 1950 nM
2 | > 10000 | 0.9 | 1980 | – | – | – | O=C(NO)C1(S(=O)(=O)c2ccc(OCCc3cccc(-c4ccccc4F)c3)cc2)CCOCC1 [Example 115] | –
3 | – | – | – | > 10000 | 0.4 | 2280 | O=C(NO)C1(S(=O)(=O)c2ccc(OCCCc3cccc(-c4ccc(F)cc4F)c3)cc2)CCOCC1 [Example 630] | –
4 | > 10000 | 5.09 | 1490 | – | – | – | CN(C(=O)CCCOc1ccc(S(=O)(=O)C2(C(=O)NO)CCOCC2)cc1)c1ccc(OC(F)(F)F)cc1 [Example 249] | –
5 | – | – | – | – | – | – | COCCN1CCC(C(=O)NO)(S(=O)(=O)c2ccc(OCCCc3nc(-c4ccc(OC(F)(F)F)cc4)no3)cc2)CC1 [Example 42] | IC50 (Human recombinant MMP-14; [1]): > 10000 nM; IC50 (Human recombinant MMP-13; [1]): 0.3 nM; Ki (Human recombinant MMP-9; [2]): 662 nM
6 | > 10000 | 1.4 | 1390 | – | – | – | COCCN1CCC(C(=O)NO)(S(=O)(=O)c2ccc(OCCCc3nc(-c4ccc(CC(C)C)cc4)no3)cc2)CC1 [Example 175] | –
7 | > 10000 | 0.5 | 334 | – | – | – | O=C(NO)C1(S(=O)(=O)c2ccc(OCCCc3ccnc(-c4ccccc4)c3)cc2)CCOCC1 [Example 197] | –
8 | – | – | – | > 10000 | 3.3 | 1930 | O=C(NO)C1(S(=O)(=O)c2ccc(OCCCc3cccc(-c4ccc5c(c4)OCO5)c3)cc2)CCOCC1 [Example 628] | –
9 | – | – | – | – | – | – | CCN1CCC(C(=O)NO)(S(=O)(=O)c2ccc(OCCCc3nc(-c4ccc(OC(F)(F)F)cc4)no3)cc2)CC1 [Example 41, 1-ethyl-N-hydroxy 4-{[4-(3-{3-[4-(trifluoromethoxy)phenyl]-1,2,4-oxadiazol-5-yl}propoxy)phenyl]sulfonyl}piperidine-4-carboxamide Hydrochloride] | IC50 (Human recombinant MMP-14; [1]): > 10000 nM; IC50 (Human recombinant MMP-13; [1]): 2 nM; Ki (Human recombinant MMP-9; [2]): 1470 nM
10 | 5820 | 0.2 | 146 | – | – | – | O=C(NO)C1(S(=O)(=O)c2ccc(OCCc3cccc(-c4cccnc4)c3)cc2)CCOCC1 [Example 125] | –
11 | > 10000 | 1.8 | 1450 | – | – | – | O=C(NO)C1(S(=O)(=O)c2ccc(OCCCc3cccc(Cc4ccccc4)c3)cc2)CCOCC1 [Example 98] | –
12 | – | – | – | > 10000 | 0.3 | 4.22 | CCN1CCC(C(=O)NO)(S(=O)(=O)c2ccc(OCCCSc3nc4ccccc4s3)cc2)CC1 [Example 591] | –
13 | – | – | – | > 10000 | 1 | 2060 | O=C(NO)C1(S(=O)(=O)c2ccc(OCCCc3cccc(-c4cccs4)c3)cc2)CCOCC1 [Example 595] | –
14 | > 10000 | 5.5 | 4230 | – | – | – | Cc1ccc(-c2cccc(CCOc3ccc(S(=O)(=O)C4(C(=O)NO)CCOCC4)cc3)c2)cc1 [Example 127] | –
15 | – | – | – | > 10000 | 0.4 | 1100 | O=C(NO)C1(S(=O)(=O)c2ccc(OCCCc3cccc(-c4ccc([N+](=O)[O-])cc4)c3)cc2)CCOCC1 [Example 626] | –
16 | – | – | – | > 10000 | 1.8 | 881 | O=C(NO)C1(S(=O)(=O)c2ccc(OCCCc3cccc(-c4ccoc4)c3)cc2)CCOCC1 [Example 637] | –

Row | IC50 (Human recombinant MMP-14; value outside parenthesis) [nM] | IC50 (Human recombinant MMP-13; value outside parenthesis) [nM] | Ki (Human recombinant MMP-9; value in parenthesis) [nM] | IC50 (Human recombinant MMP-14; value outside parentheses) [nM] | IC50 (Human recombinant MMP-13; value outside parentheses) [nM] | Ki (Human recombinant MMP-9; value in parentheses) [nM] | SMILES | further results
17 | – | – | – | – | – | – | CCN1CCC(C(=O)NO)(S(=O)(=O)c2ccc(OCCCc3cccc(-c4ccccc4)c3)cc2)CC1 [Example 46] | IC50 (Human recombinant MMP-14; [1]): > 10000 nM; IC50 (Human recombinant MMP-13; [1]): 3.1 nM; Ki (Human recombinant MMP-9; [2]): 418 nM
18 | > 10000 | 0.2 | 247 | – | – | – | O=C(CCCOc1ccc(S(=O)(=O)C2(C(=O)NO)CCOCC2)cc1)Nc1ccc(OC(F)(F)F)cc1 [Example 228] | –
19 | – | – | – | 2490 | 2.7 | 308 | O=C(Cc1csc2ccccc12)NCCOc1ccc(S(=O)(=O)C2(C(=O)NO)CCOCC2)cc1 [Example 596] | –
20 | > 10000 | 1.7 | 281 | – | – | – | Cc1cc(OC(F)(F)F)ccc1NC(=O)CCCOc1ccc(S(=O)(=O)C2(C(=O)NO)CCOCC2)cc1 [Example 229] | –
21 | > 10000 | 7.8 | 306 | – | – | – | COCCN1CCC(C(=O)NO)(S(=O)(=O)c2ccc(OCCCc3nnc(-c4ccccc4C(F)(F)F)o3)cc2)CC1 [Example 178] | –
22 | – | – | – | – | – | – | O=C(NO)C1(S(=O)(=O)c2ccc(OCCCc3nc(-c4ccc(OC(F)(F)F)cc4)no3)cc2)CCN(C2CC2)CC1 [Example 51, 1-cyclopropyl-N-hydroxy-4-{[4-(3-{3-[4-(trifluoromethoxy)phenyl]-1,2,4-oxadiazol-5-yl}propoxy)phenyl]sulfonyl}piperidine-4-carboxamide Hydrochloride] | IC50 (Human recombinant MMP-14; [1]): > 10000 nM; IC50 (Human recombinant MMP-13; [1]): 0.2 nM; Ki (Human recombinant MMP-9; [2]): 98.7 nM
23 | > 10000 | 0.5 | 754 | – | – | – | COCCN1CCC(C(=O)NO)(S(=O)(=O)c2ccc(OCCCc3cccc(-c4ccc(F)cc4)c3)cc2)CC1 [Example 140] | –
24 | > 10000 | 0.5 | 85.4 | – | – | – | CC(C)c1cccc(NC(=O)CCCOc2ccc(S(=O)(=O)C3(C(=O)NO)CCOCC3)cc2)c1 [Example 182] | –
25 | – | – | – | – | – | – | O=C(NO)C1(S(=O)(=O)c2ccc(OCCCc3nc(-c4ccc(OC(F)(F)F)cc4)no3)cc2)CCOCC1 [Example 31, tetrahydro-N-hydroxy-4-[[4-[3-[3[4-(trifluoromethoxy)phenyl]-1,2,4-oxadiazol-5-yl]propoxy]phenyl]sulfonyl]-2H-pyran-4-carboxamide] | IC50 (Human recombinant MMP-14; [1]): > 10000 nM; IC50 (Human recombinant MMP-13; [1]): 2.1 nM; Ki (Human recombinant MMP-9; [2]): 1600 nM
26 | 9120 | 0.8 | 151 | – | – | – | O=C(NO)C1(S(=O)(=O)c2ccc(OCCCc3cccc(Br)c3)cc2)CCOCC1 [Example 154] | –
27 | – | – | – | > 10000 | 0.3 | 1250 | O=C(NO)C1(S(=O)(=O)c2ccc(OCCCc3cncc(-c4ccc(F)cc4)c3)cc2)CCOCC1 [Example 523] | –
28 | 8060 | 0.3 | 40.5 | – | – | – | O=C(CCCOc1ccc(S(=O)(=O)C2(C(=O)NO)CCOCC2)cc1)Nc1cccc(OC(F)(F)F)c1 [Example 181] | –
29 | 7720 | 0.2 | 161 | – | – | – | O=C(NO)C1(S(=O)(=O)c2ccc(OCCc3cccc(-c4ccncc4)c3)cc2)CCOCC1 [Example 113] | –
30 | – | – | – | > 10000 | 0.3 | 443 | N#Cc1ccc(-c2cccc(CCCOc3ccc(S(=O)(=O)C4(C(=O)NO)CCOCC4)cc3)c2)cc1 [Example 624] | –
31 | – | – | – | > 10000 | 1.6 | 716 | O=C(NO)C1(S(=O)(=O)c2ccc(OCCCc3cccc(-c4ccsc4)c3)cc2)CCOCC1 [Example 632] | –
32 | – | – | – | > 10000 | 0.1 | 8180 | O=C(NO)C1(S(=O)(=O)c2ccc(OCCCc3cc(-c4ccc(F)cc4F)cs3)cc2)CCOCC1 [Example 587] | –
